The source of these data is US20250011303A1, “SMALL MOLECULE MODULATORS OF IL-17A, METHODS OF MAKING AND METHODS OF USING THEREOF” (ASCLETIS BIOSCIENCE CO., LTD, priority 2023, published 2025).

Structures are written as SMILES.

For one assay, the system named is HEK-Blue IL-17 cells with rhIL-17A/A. Put plainly: HEK-Blue IL-17 cell assay (SEAP reporter, rhIL-17A/A stimulation). The format is cell-based, human. The settings on record: 20 hours incubation, absorbance at 405 nm, read-out: IC50 in HEK-Bule cell Assay. Here is the method: • 1. The test Compounds were 3-fold serial diluted from 10 mM for 10 doses in DMSO. • 2. Prepare Reference Compounds (IL-17A-Inhibitor-1) were 3-fold serial diluted from 1 mM for 10 doses in DMSO. • 3. Prepare 1000× Positive control (1 mM IL-17A-Inhibitor-1) and 1000× vehicle control (100% DMSO).
• a) Cells were cultured as the HEK-Blue™ IL-17 technical data sheet recommended. HEK-Blue IL-17 cells were assayed in the exponential growth phase. • b) Aspirate growth medium and rinse cells twice with PBS to remove phenol red. • c) Resuspend cells in test medium to a proper concentration. • d) Only cells with viability greater than 90% were used for assays. • e) Transfer 25 nl of compound dilutions into 384-well assay plates using Echo655; • f) Seed 25 ul of HEK-Blue IL-17 cells at 8,000 cells/well into 384-well plate with rhIL-17A/A. • g) Cells were incubated for 20 hours at 37° C. under 5% CO2 atmosphere. • h) Transfer 2 ul of cells supernatant into per well of 384-well assay plates. • i) Add 20 ul of PNPP substrate. • j) Measure the Absorbance at 405 nm on Envision 2105 plate reader.
RLU signal (LUMcmpd) is calculated for each well.
% Inhibition is calculated as follow: […]
Signalave_pc: The average signal for the positive controls across the plate.
Signalave_vc: The average signal for negative controls across the plate.
Calculate IC50 and Plot effect-dose curve of cmpds:
Calculate IC50 by fitting % Inhibition values and log of compound concentrations to nonlinear regression (dose response−variable slope) with Graphpad 8.0.
For `CC(C)n1nccc1C(=O)N[C@H](C(=O)Nc1ccc2c(c1)O[C@H](C1CC(F)(F)C1)C[C@H]2C(=O)N1CC(F)(F)C1)C1CCCCCC1` [Compound 226], the IC50 (commonly the concentration that inhibits the measured activity by half) came to 48.9 nM.

The assay is the same for the next values; noted with them: Homo sapiens, HEK-Blue, 20 h, 20 hours incubation, absorbance at 405 nm, read-out: IC50 in HEK-Bule cell Assay.
Regarding `CC(C)n1nccc1C(=O)N[C@H](C(=O)Nc1ccc2c(c1)OCC[C@H]2NC(=O)CCC(F)(F)F)C1CCCCCC1` [Compound 1], the IC50 is 209 nM.

In the case of `CC(C)n1nccc1C(=O)N[C@H](C(=O)Nc1ccc2c(c1)OCC[C@H]2NS(=O)(=O)CCC(F)(F)F)C1CCCCCC1` [Compound 5], the IC50 came to 333 nM.

In the case of `CC(C)n1nccc1C(=O)N[C@H](C(=O)Nc1ccc2c(c1)OCC(C)(C)[C@H]2NC(=O)CCC(F)(F)F)C1CCCCCC1` [Compound 12], the IC50 came out at 317 nM.

In the case of `CC(C)n1nccc1C(=O)N[C@H](C(=O)Nc1ccc2c(c1)OC(C)(C)C[C@H]2NC(=O)CCC(F)(F)F)C1CCCCCC1` [Compound 13], the IC50 amounted to 239 nM.

On to `CC(C)n1nccc1C(=O)N[C@H](C(=O)Nc1ccc2c(c1)OCC[C@H]2C(=O)N1CC(F)(F)C(F)(F)C1)C1CCCCCC1` [Compound 36], for which the IC50 came out at 154 nM.

With `CCC1(CC)CC(C(=O)N2CC(F)(F)C2)c2ccc(NC(=O)[C@@H](NC(=O)c3ccnn3C(C)C)C3CCCCCC3)cc2O1` (stereo partly shown) [Compound 108], the IC50 was found to be 102 nM.

Regarding `CC(C)n1nccc1C(=O)N[C@H](C(=O)Nc1ccc2c(c1)O[C@@H](C1CC(F)(F)C1)C[C@H]2C(=O)N1CC(F)(F)C1)C1CCCCCC1` [Compound 135], the IC50 came out at 18.9 nM.

`CC(C)n1nccc1C(=O)N[C@H](C(=O)Nc1ccc2c(c1)O[C@H](C1CC(F)(F)C1)C[C@H]2C(=O)N1CC(F)(F)C1)C1CCCCCC1` [Compound 136]: the IC50 was found to be 49 nM.

As to `CC(C)n1nccc1C(=O)N[C@H](C(=O)Nc1ccc2c(c1)OC1(CCOCC1)C[C@H]2C(=O)N1CC(F)(F)C1)C1CCCCCC1` [Compound 152], the IC50 is 7.49 nM.

In the case of `CC(C)n1nccc1C(=O)N[C@H](C(=O)Nc1ccc2c(c1)O[C@@H](C1CC(F)(F)C1)C[C@H]2C(=O)N1CC(F)(F)C1)C(C1CC1)C1CC1` [Compound 160], the IC50 came out at 42.1 nM.

Regarding `CC(C)n1nccc1C(=O)N[C@H](C(=O)Nc1ccc2c(c1)OC1(CCOCC1)C[C@H]2C(=O)N1CC(F)(F)C1)C(C1CC1)C1CC1` [Compound 162], the IC50 is 35.7 nM.

Take `CC(C)C1CC(C(=O)N2CC(C(F)(F)F)C2)c2ccc(NC(=O)[C@@H](NC(=O)c3ccnn3C(C)C)C3CCCCCC3)cc2O1` (stereo partly shown) [Compound 164]: the IC50 stood at 72.6 nM.

On to `CC(C)C1CC(C(=O)N2CC3(C2)CC(F)(F)C3)c2ccc(NC(=O)[C@@H](NC(=O)c3ccnn3C(C)C)C3CCCCCC3)cc2O1` (stereo partly shown) [Compound 165], for which the IC50 is 127 nM.

As to `CC(C)n1nccc1C(=O)N[C@H](C(=O)Nc1ccc2c(c1)OC(C)(C)CN2C(=O)N1CC(F)(F)C1)C1CCCCCC1` [Compound 166], the IC50 turned out to be 54.5 nM.

Consider `CC(C)C1CN(C(=O)N2CC(F)(F)C2)c2ccc(NC(=O)[C@@H](NC(=O)c3ccnn3C(C)C)C3CCCCCC3)cc2O1` (stereo partly shown) [Compound 167], for which the IC50 is 30.4 nM.

`CC(C)n1nccc1C(=O)N[C@H](C(=O)Nc1ccc2c(c1)OC1(CCOCC1)CN2C(=O)N1CC(F)(F)C1)C1CCCCCC1` [Compound 169]: the IC50 turned out to be 18.2 nM.

Consider `O=C(N[C@H](C(=O)Nc1ccc2c(c1)OC(C1CC(F)(F)C1)CC2C(=O)N1CC(C(F)(F)F)C1)C1CCCCCC1)OCC1CC1(F)F` (stereo partly drawn) [Compound 189, (2,2-difluorocyclopropyl)methyl N—[(S)-cycloheptyl[(2-(3,3-difluorocyclobutyl)-4-(3-(trifluoromethyl)azetidine-1-carbonyl)-3,4-dihydro-2H-1-benzopyran-7-yl)carbamoyl]methyl]carbamate], for which the IC50 came to 226 nM.

With `O=C(N[C@H](C(=O)Nc1ccc2c(c1)OC1(CCOCC1)CC2C(=O)N1CC(F)(F)C1)C1CCCCCC1)OC[C@@H]1CC1(F)F` (stereo partly shown) [Compound 190], the IC50 turned out to be 367 nM.

Take `O=C(N[C@H](C(=O)Nc1ccc2c(c1)OC(C1CC(F)(F)C1)CC2C(=O)N1CC(F)(F)C1)C1CCCCCC1)OCc1cc(C(F)F)on1` (stereo partly shown) [Compound 191]: the IC50 was 171 nM.

Turning to `O=C(N[C@H](C(=O)Nc1cc2c(cc1F)C(C(=O)N1CC(F)(F)C1)CC(C1CC(F)(F)C1)O2)C1CCCCCC1)OC[C@@H]1CC1(F)F` (stereo partly shown) [Compound 192], the IC50 stood at 267 nM.

On to `CC(C)n1nccc1C(=O)N[C@H](C(=O)Nc1cc2c(cc1F)C(C(=O)N1CC(F)(F)C1)CC(C1CC(F)(F)C1)O2)C1CCCCCC1` (stereo partly shown) [Compound 193], for which the IC50 is 39.7 nM.

As to `CC(C)C1CC(C(=O)N2CC(F)(F)C2)c2ccc(NC(=O)[C@@H](NC(=O)OC3CC(F)(F)C3)C3CCCCCC3)cc2O1` (stereo partly shown) [Compound 194], the IC50 is 564 nM.

Regarding `CC(C)n1nccc1C(=O)N[C@H](C(=O)Nc1ccc2c(c1F)OC(C1CC(F)(F)C1)CC2C(=O)N1CC(F)(F)C1)C1CCCCCC1` (stereo partly shown) [Compound 195], the IC50 stood at 131 nM.

With `CC(C)n1nccc1C(=O)N[C@H](C(=O)Nc1ccc2c(c1)OCCC2C(=O)N1CC(F)(F)C1)C1CCCCCC1` (stereo partly shown) [Compound 197], the IC50 is 287 nM.

Consider `CC(C)n1nccc1C(=O)N[C@H](C(=O)Nc1ccc2c(c1)OCC[C@H]2C(=O)N1CC(F)(F)C1)C1CCCCCC1` [Compound 198], for which the IC50 amounted to 216 nM.

Consider `CC(C)n1nccc1C(=O)N[C@H](C(=O)Nc1ccc2c(c1)OC(C)(C)CC2C(=O)N1CC(F)(F)C1)C1CCCCCC1` (stereo partly shown) [Compound 200], for which the IC50 turned out to be 200 nM.

Turning to `CC(C)n1nccc1C(=O)N[C@H](C(=O)Nc1ccc2c(c1)OCCC2CC(=O)N1CC(F)(F)C(F)(F)C1)C1CCCCCC1` (stereo partly shown) [Compound 201], the IC50 was determined as 443 nM.

Take `CC(C)n1nccc1C(=O)N[C@H](C(=O)Nc1ccc2c(c1)CCCC2C(=O)N1CC(F)(F)C(F)(F)C1)C1CCCCCC1` (stereo partly shown) [Compound 203]: the IC50 stood at 141 nM.

For `CC(C)n1nccc1C(=O)N[C@H](C(=O)Nc1ccc2c(c1)OCCC2C(=O)N1CCC(F)(F)CC1)C1CCCCCC1` (stereo partly shown) [Compound 206], the IC50 was 369 nM.

For the compound `CC(C)n1nccc1C(=O)N[C@H](C(=O)Nc1ccc2c(c1)SCCC2C(=O)N1CC(F)(F)C(F)(F)C1)C1CCCCCC1` (stereo partly shown) [Compound 207], the IC50 was 92.9 nM.

On to `CC(C)n1nccc1C(=O)N[C@H](C(=O)Nc1ccc2c(c1)S(=O)(=O)CCC2C(=O)N1CC(F)(F)C(F)(F)C1)C1CCCCCC1` (stereo partly shown) [Compound 208], for which the IC50 is 290 nM.

Turning to `CC(C)n1nccc1C(=O)N[C@H](C(=O)Nc1ccc2c(c1)OC(C1CCC1)CC2C(=O)N1CC(F)(F)C(F)(F)C1)C1CCCCCC1` (stereo partly shown) [Compound 210], the IC50 stood at 251 nM.

Take `CC(C)n1nccc1C(=O)N[C@H](C(=O)Nc1ccc2c(c1)OC(C1CCCC1)CC2C(=O)N1CC(F)(F)C(F)(F)C1)C1CCCCCC1` (stereo partly shown) [Compound 211]: the IC50 is 259 nM.

As for `CC(C)n1nccc1C(=O)N[C@H](C(=O)Nc1ccc2c(c1)OC(C1CCCCC1)CC2C(=O)N1CC(F)(F)C1)C1CCCCCC1` (stereo partly shown) [Compound 212], the IC50 is 213 nM.

On to `CC(C)n1nccc1C(=O)N[C@H](C(=O)Nc1ccc2c(c1)OC(C(C)(C)C)CC2C(=O)N1CC(F)(F)C(F)(F)C1)C1CCCCCC1` (stereo partly shown) [Compound 213], for which the concentration for half-maximal inhibition (IC50) was found to be 112 nM.

In the case of `Cc1nonc1C(=O)N[C@H](C(=O)Nc1ccc2c(c1)OC(C(C)C)CC2C(=O)N1CC(F)(F)C1)C1CCCCCC1` (stereo partly shown) [Compound 214], the IC50 worked out at 335 nM.

For the compound `CC(C)[C@H]1C[C@@H](C(=O)N2CC(F)(F)C(F)(F)C2)c2ccc(NC(=O)[C@@H](NC(=O)c3ccnn3C(C)C)C3CCCCCC3)cc2O1` [Compound 215], the IC50 amounted to 40.7 nM.

Turning to `CC(C)[C@@H]1C[C@@H](C(=O)N2CC(F)(F)C(F)(F)C2)c2ccc(NC(=O)[C@@H](NC(=O)c3ccnn3C(C)C)C3CCCCCC3)cc2O1` [Compound 217], the IC50 came to 199 nM.

Take `CC(C)[C@H]1C[C@H](C(=O)N2CC(F)(F)C(F)(F)C2)c2ccc(NC(=O)[C@@H](NC(=O)c3ccnn3C(C)C)C3CCCCCC3)cc2O1` [Compound 218]: the IC50 amounted to 222 nM.

Regarding `CC(C)n1nccc1C(=O)N[C@H](C(=O)Nc1ccc2c(c1)CCCC2C(=O)N1CC(F)(F)C1)C1CCCCCC1` (stereo partly shown) [Compound 219], the IC50 came to 276 nM.

Consider `CC(C)CC1CC(C(=O)N2CC(F)(F)C2)c2ccc(NC(=O)[C@@H](NC(=O)c3ccnn3C(C)C)C3CCCCCC3)cc2O1` (stereo partly shown) [Compound 220], for which the IC50 worked out at 181 nM.

As for `CC(C)n1nccc1C(=O)N[C@H](C(=O)Nc1ccc2c(c1)OC1(CCCCC1)CC2C(=O)N1CC(F)(F)C1)C1CCCCCC1` (stereo partly shown) [Compound 221], the IC50 stood at 116 nM.

For `CC(C)n1nccc1C(=O)N[C@H](C(=O)Nc1ccc2c(c1)OC1(CCC1)CC2C(=O)N1CC(F)(F)C1)C1CCCCCC1` (stereo partly shown) [Compound 222], the IC50 turned out to be 255 nM.

With `CC(C)n1nccc1C(=O)N[C@H](C(=O)Nc1ccc2c(c1)OC1(CCCC1)CC2C(=O)N1CC(F)(F)C1)C1CCCCCC1` (stereo partly shown) [Compound 223], the IC50 stood at 130 nM.

As to `CC(C)n1nccc1C(=O)N[C@H](C(=O)Nc1ccc2c(c1)OC1(CCC(C)(C)CC1)CC2C(=O)N1CC(F)(F)C1)C1CCCCCC1` (stereo partly shown) [Compound 224], the IC50 turned out to be 202 nM.
